Reference: patent publication US9796990B2 (priority 2011, dated 2017)
Converted amounts (≈) assume the structure as drawn. Like-named read-outs stand apart in the source and are kept apart here.

Tests used:
[1] = test system: Bluegill (Lepomis macrochirus); conditions: in vivo; cited from earlier work
Ceriodaphnia dubia = experiment: whole plant or invertebrate; conditions: read-out: EC 50, effective concentration for 50% survival

Row | SMILES | toxicity compared with the parent compound chlorpyriphos [1] | EC50 (Ceriodaphnia dubia; 24 h) [ng/mL] | EC50 (Ceriodaphnia dubia; 48 h) [ng/mL]
1 | CCOP(O)(=S)OCC [diethyl thiophosphoric acid] | considerably less toxic than the parent compound |  | 
2 | CCOP(=S)(OCC)Oc1cc(C)nc(C(C)C)n1 [Untreated diazinon, diazinon] |  | 0.389 (≈ 1.28 nM) | 0.195 (≈ 0.641 nM)
